The values below come from patent US8343963B2, “Sulfamoyl-phenyl-ureido compounds and their use as medicament” (4SC AG, priority 2009, dated 2013).

The subject of data set [1] is multiresistant Dd2 strain of Plasmodium falciparum. The experiment in a line: Antiplasmodial activity against Dd2 strain of Plasmodium falciparum ([8-3H]hypoxanthine incorporation). In kind it is cell-based. The conditions noted are these: 66 h, P. falciparum Dd2, 48 h + 18 h with [8-3H]hypoxanthine, 50% parasite growth inhibition, read-out: Antiplasmodia activity (IC50 class). How it is done: For the determination of the antiplasmodial activity of the compounds described above, the multiresistant Dd2 strain of Plasmodium falciparum was used. The incorporation of [8-^3H]hypoxanthine into the parasitic nucleic acids was measured. The plasmodia were incubated at 0.3% parasitaemia and an erythrocyte haematocrit of 2.5% in the presence of different concentrations of the compounds in a final volume of 200 μl. The medium employed was RPMI 1640 which contained 10% of heat-treated human serum and 3 mg/l of gentamycin. In the incubations, the concentrations of the compounds varied from 0.001 to 100 μM. After 48 h, each batch was treated with 50 μl of [8-^3H]hypoxanthine (1 mCi/ml) and incubated for a further 18 h. The cells were filtered off, washed and suspended in 20 μl of scintillation fluid. The radioactive hypoxanthine absorbed by the parasites was then quantified using a scintillation counter. The results were presented graphically and the IC50 value was determined using a fitting function. The value IC50, the ‘inhibition constant’, indicates the value in μMol/l at which 50% parasite growth inhibition occurs (R. E. Desjardins, et al., Antimicrobiol. Agent Chemother. 16, pp. 710-718, 1979; J. D. Chulay, et al., Exp. Parasitol. 55, pp. 138-146, 1983).

Data set [2] is described as follows: In vitro clearance using human liver microsomes. In kind it is in vitro ADME. The conditions noted are these: human liver microsomes 0.5 mg/ml, 1 μM compound, 37° C., 0-30 min. How it is done: These experiments were performed at Nikem Research (Via Zambeletti 25; Baranzate, Milan, Italy). Test compounds in duplicate at the final concentration of 1 μM were dissolved in DMSO and pre-incubated for 10 min at 37° C. in phosphate buffer pH 7.4, 3 mM MgCl2, with human liver microsomes at the final concentration of 0.5 mg/ml. After the pre-incubation period, reaction was started by adding the cofactor mixture (NADP, Glc6P, G6P-DH); samples were taken at time 0, 5, 10, 15, 20 and 30 min and added to acetonitrile to quench the metabolic reaction, centrifuged and supernatant analysed and quantified by HPLC/MS. A control sample without cofactors was always added in order to check the chemical stability of test compounds. 7-ethoxycoumarin was added as reference standard. A fixed concentration of verapamil was added in every sample as internal standard for HPLC/MS. The concentration of the remaining compound at different times was determined by HPLC/MS. The rate constant, k (min^−1) derived for the exponential decay equation (peak area vs time) was used to calculate the rate of intrinsic clearance (Cli) of the compounds using the following equations: Cli (μl/min/mg compound)=k×V; where: V (μl/mg compound)=incubation volume/mg compound added. In table 3 the clearance (in vitro metabolic stability) classification was as follows: Cli<10=compound stable; Cli between 10 and 60=low metabolism; Cli between 60 and 600=medium metabolism Cli>600=high metabolism.
For orientation: Microsomes from liver hold many membrane-bound enzymes, among them those of drug oxidation.

The nature of data set [3]: Solubility and solubility-range determination in 50 mM phosphate buffer at different pH. In kind it is physicochemical. The conditions noted are these: aqueous buffer, kinetic from dmso stock, 1% DMSO, 23° C., read-out: Solubility or solubility range. How it is done: The compounds were dissolved in DMSO at a concentration of 20 mg/ml. These stock solutions were further diluted 1:1 with DMSO (50 μl solution+50 μl DMSO) in seven steps. Subsequently, these solutions were diluted 1:100 (5 μl DMSO-stock+495 μl 50 mM phosphate buffer) in all four pH buffers (respectively: pH=4; pH=6; pH=7.4; pH=9) resulting in a final DMSO concentration of 1% in the buffers. These dilutions were vigorously mixed and transferred into 96-well reading plate. The plates were incubated in a shaker (600 rpm) at 23° C. for 24 hours. After that, the contents of the wells were mixed with a pipette and optical density (OD) was recorded at wavelengths of 550 nm; 600 nm; 650 nm and 700 nm in the Tecan Sunrise plate reader. The cut-off OD sum for an undissolved concentration of a compound was defined as follows: Cut off OD sum=mean blank OD+0.050 OD. For the determination of the solubility range, the following rule was applied: OD>cut off=>compound not dissolved at this concentration OD<cut-off=>compound dissolved at this concentration For the determination of the solubility, a titration curve (OD/concentration) was prepared and the concentrations were determined based on the measured OD of the mixture supernatant after centrifugation. The solubility values are given in μg/ml (table 3).

pIC50: −log10 of the molar value. Like-named read-outs stand apart in the source and are kept apart here.

In general, pIC50 refers to the negative decadic logarithm of the IC50, by convention in mol/L. With `CCCCN1CCN(C(=N)c2cccc(NC(=O)Nc3ccc(S(N)(=O)=O)cc3)c2)CC1` [Compound 1, 4-(3-(3-((4-butylpiperazin-1-yl)(imino)methyl)phenyl)ureido)benzenesulfonamide], the pIC50 in data set [1] is at most 6.00. In data set [2], the “In vitro metabolism as determined from Cli” value (from here on “In vitro metabolism”) is “low (Cli between 10 and 60=low metabolism)”.
As to `CCCCN1CCN(C(=N)c2cccc(NC(=O)Nc3ccc(S(=O)(=O)Nc4ccc(S(N)(=O)=O)cc4)cc3)c2)CC1` [Compound 23, 4-(3-(3-((4-butylpiperazin-1-yl)(imino)methyl)phenyl)ureido)-N-(4-sulfamoylphenyl)benzenesulfonamide], in data set [1], the pIC50 was 6.00 to 6.68. In data set [2], the “In vitro metabolism” value is “low (Cli between 10 and 60=low metabolism)”.
For the compound `CCN1CCN(C(=N)c2cccc(NC(=O)Nc3ccc(S(=O)(=O)NCc4ccc(S(N)(=O)=O)cc4)cc3)c2)CC1` [Compound 37, 4-(3-(3-((4-ethylpiperazin-1-yl)(imino)methyl)phenyl)ureido)-N-(4-sulfamoylbenzyl)benzenesulfonamide], the pIC50 in data set [1] was 6.70 to 7.70. Besides, the “In vitro metabolism” value in data set [2] is “medium (Cli between 60 and 600=medium metabolism)”.
With `CCCCN1CCN(C(=N)c2cccc(NC(=O)Nc3ccc(S(=O)(=O)N4Cc5ccc(S(N)(=O)=O)cc5C4)cc3)c2)CC1` [Compound 41, 2-(4-(3-(3-((4-butylpiperazin-1-yl)(imino)methyl)phenyl)ureido)phenylsulfonyl)isoindoline-5-sulfonamide], in data set [1], the pIC50 is 6.70 to 7.70. Also, the “In vitro metabolism” value in data set [2] was “medium (Cli between 60 and 600=medium metabolism)”.
For the compound `N=C(c1cccc(NC(=O)Nc2ccc(S(=O)(=O)NCc3ccc(S(N)(=O)=O)cc3)cc2)c1)N1CCOCC1` [Compound 43, 4-(3-(3-(imino (morpholino)methyl)phenyl)ureido)-N-(4-sulfamoylbenzyl)benzenesulfonamide], in data set [1], the pIC50 was 6.70 to 7.70. Further, in data set [2], the “In vitro metabolism” value is “medium (Cli between 60 and 600=medium metabolism)”.
Broadly, the solubility is the concentration that dissolves in the medium under given conditions. For `N=C(c1cccc(NC(=O)Nc2ccc(S(=O)(=O)NCc3ccc(S(N)(=O)=O)cc3)cc2)c1)N1CCS(=O)(=O)CC1` [Compound 44, 4-(3-(3-((1,1-dioxidothiomorpholino)(imino)methyl)phenyl)ureido)-N-(4-sulfamoylbenzyl)benzenesulfonamide], in data set [1], the negative-log IC50 (pIC50) was 6.70 to 7.70. For the same compound, the solubility at 24 h was over 200 µg/mL in data set [3] (pH 4, 50 mM phosphate buffer); over 200 µg/mL in data set [3] (pH 6, 50 mM phosphate buffer); over 200 µg/mL in data set [3] (pH 7.4, 50 mM phosphate buffer); over 200 µg/mL in data set [3] (pH 9, 50 mM phosphate buffer).
In the case of `CN1CCN(C(=N)c2cccc(NC(=O)Nc3ccc(S(=O)(=O)NCc4ccc(S(N)(=O)=O)cc4)cc3)c2)CC1` [Compound 53, 4-(3-(3-(imino(4-methylpiperazin-1-yl)methyl)phenyl)ureido)-N-(4-sulfamoylbenzyl)benzenesulfonamide], in data set [1], the pIC50 was 6.00 to 6.68. The “In vitro metabolism” value in data set [2] is “low (Cli between 10 and 60=low metabolism)”.
With `CC(C)N1CCN(C(=N)c2cccc(NC(=O)Nc3ccc(S(=O)(=O)NCc4ccc(S(N)(=O)=O)cc4)cc3)c2)CC1` [Compound 54, 4-(3-(3-(imino(4-isopropylpiperazin-1-yl)methyl)phenyl)ureido)-N-(4-sulfamoylbenzyl)benzenesulfonamide], in data set [1], the pIC50 was 6.70 to 7.70. In addition, the “In vitro metabolism” value in data set [2] was “medium (Cli between 60 and 600=medium metabolism)”.
`CCCCCN1CCN(C(=N)c2cccc(NC(=O)Nc3ccc(S(=O)(=O)NCc4ccc(S(N)(=O)=O)cc4)cc3)c2)CC1` [Compound 55, 4-(3-(3-(imino(4-pentylpiperazin-1-yl)methyl)phenyl)ureido)-N-(4-sulfamoylbenzyl)benzenesulfonamide]: in data set [1], the pIC50 is over 7.70.
The same measure, in the same setting: then `CCCCCCCN1CCN(C(=N)c2cccc(NC(=O)Nc3ccc(S(=O)(=O)NCc4ccc(S(N)(=O)=O)cc4)cc3)c2)CC1` [Compound 56, 4-(3-(3-((4-heptylpiperazin-1-yl)(imino)methyl)phenyl)ureido)-N-(4-sulfamoylbenzyl)benzenesulfonamide], with 6.70 to 7.70; and `CC(=O)N1CCN(C(=N)c2cccc(NC(=O)Nc3ccc(S(=O)(=O)NCc4ccc(S(N)(=O)=O)cc4)cc3)c2)CC1` [Compound 57, 4-(3-(3-((4-acetylpiperazin-1-yl)(imino)methyl)phenyl)ureido)-N-(4-sulfamoylbenzyl)benzenesulfonamide], with 6.70 to 7.70; and `CCCCC(=O)N1CCN(C(=N)c2cccc(NC(=O)Nc3ccc(S(=O)(=O)NCc4ccc(S(N)(=O)=O)cc4)cc3)c2)CC1` [Compound 59, 4-(3-(3-(imino(4-pentanoylpiperazin-1-yl)methyl)phenyl)ureido)-N-(4-sulfamoylbenzyl)benzenesulfonamide], with 6.70 to 7.70.
Regarding `CCOC(=O)N1CCN(C(=N)c2cccc(NC(=O)Nc3ccc(S(=O)(=O)NCc4ccc(S(N)(=O)=O)cc4)cc3)c2)CC1` [Compound 61, ethyl 4-(imino(3-(3-(4-(N-(4-sulfamoylbenzyl)sulfamoyl)phenyl)ureido)phenyl)methyl)piperazine-1-carboxylate], in data set [1], the pIC50 is over 7.70.
The same measure, in the same setting: with `CCCOC(=O)N1CCN(C(=N)c2cccc(NC(=O)Nc3ccc(S(=O)(=O)NCc4ccc(S(N)(=O)=O)cc4)cc3)c2)CC1` [Compound 62, propyl 4-(imino(3-(3-(4-(N-(4-sulfamoylbenzyl)sulfamoyl)phenyl)ureido)phenyl)methyl)piperazine-1-carboxylate] the figure was over 7.70.
As for `CCCCN1CCN(C(=N)c2cccc(NC(=O)Nc3ccc(S(=O)(=O)NCc4ccc(S(N)(=O)=O)cc4)cc3)c2)CC1=O` [Compound 63, 4-(3-(3-((4-butyl-3-oxopiperazin-1-yl)(imino)methyl)phenyl)ureido)-N-(4-sulfamoylbenzyl)benzenesulfonamide], in data set [1], the pIC50 was over 7.70. For the same compound, the “In vitro metabolism” value in data set [2] is “medium (Cli between 60 and 600=medium metabolism)”.
`N=C(c1cccc(NC(=O)Nc2ccc(S(=O)(=O)NCc3ccc(S(N)(=O)=O)cc3)cc2)c1)N1CCN(CC2OCCO2)CC1` [Compound 67, 4-(3-(3-((4-((1,3-dioxolan-2-yl)methyl)piperazin-1-yl)(imino)methyl)phenyl)ureido)-N-(4-sulfamoylbenzyl)benzene sulfonamide]: in data set [1], the pIC50 was 6.70 to 7.70.
On the same count and under the same terms, then `N=C(c1cccc(NC(=O)Nc2ccc(S(=O)(=O)NCc3ccc(S(N)(=O)=O)cc3)cc2)c1)N1CCN(CC2CCCO2)CC1` (stereo not drawn) [Compound 68, 4-(3-(3-(imino(4-((tetrahydrofuran-2-yl)methyl)piperazin-1-yl)methyl)phenyl)ureido)-N-(4-sulfamoylbenzyl)benzene sulfonamide], with 6.70 to 7.70.
Still for that read-out and setting: then `CCCCN1CCN(C(=N)c2ccc(NC(=O)Nc3ccc(S(=O)(=O)NCc4ccc(S(N)(=O)=O)cc4)cc3)cc2)CC1` [Compound 71, 4-(3-(4-((4-butylpiperazin-1-yl)(imino)methyl)phenyl)ureido)-N-(4-sulfamoylbenzyl)benzene sulfonamide], with 6.70 to 7.70.
